Results taken from ChEMBL document CHEMBL2385042, “Diterpenoids with diverse skeletons from the roots of Euphorbia micractina” (J Nat Prod, 2013).
pIC50: −log10 of the molar value. The source made the active and inactive calls. No cut-off for these calls is given here.

Experiments:
KETR3 = assay: Cytotoxicity against human Ketr3 cells assessed as cell viability at 10 uM after 96 hrs by MTT assay; format: functional, cell-based
[1] = molecular target: T1, Tyrosine-protein phosphatase non-receptor type 1 (Homo sapiens) (UniProt P18031); assay: Inhibition of human recombinant GST-tagged PTP1B using para-nitrophenyl phosphate as substrate assessed as release of para-nitrophenol at 10 uM after 10 mins by spectrophotometric analysis
T1 sequence (whole entry): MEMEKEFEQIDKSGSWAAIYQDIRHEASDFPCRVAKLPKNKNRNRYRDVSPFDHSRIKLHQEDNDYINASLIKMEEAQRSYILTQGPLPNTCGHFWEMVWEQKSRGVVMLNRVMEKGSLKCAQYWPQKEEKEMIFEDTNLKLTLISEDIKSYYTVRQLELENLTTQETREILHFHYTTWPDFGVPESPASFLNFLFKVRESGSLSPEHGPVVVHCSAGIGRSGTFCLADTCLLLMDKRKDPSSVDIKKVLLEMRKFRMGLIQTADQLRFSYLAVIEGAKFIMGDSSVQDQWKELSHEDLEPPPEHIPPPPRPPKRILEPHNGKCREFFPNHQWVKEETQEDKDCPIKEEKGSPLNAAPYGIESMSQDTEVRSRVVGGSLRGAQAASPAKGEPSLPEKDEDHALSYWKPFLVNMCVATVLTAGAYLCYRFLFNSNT

HCT-8 = assay: Cytotoxicity against human HCT8 cells assessed as cell viability at 10 uM after 96 hrs by MTT assay; format: functional, cell-based
A549 = assay: Cytotoxicity against human A549 cells assessed as cell viability at 10 uM after 96 hrs by MTT assay; format: functional, cell-based
Bel-7402 = assay: Cytotoxicity against human Bel7402 cells assessed as cell viability at 10 uM after 96 hrs by MTT assay; format: functional, cell-based
[2] = test system: Human immunodeficiency virus 1; assay: Antiviral activity against HIV1 infected in human 293T cells assessed as inhibition of viral replication at 10 uM incubated for 15 mins prior to infection measured after 48 hrs by luciferase reporter gene assay; format: functional, organism-based
MCF7 = assay: Cytotoxicity against human MCF7 cells assessed as cell viability at 10 uM after 96 hrs by MTT assay; format: functional, cell-based
BGC-823 = assay: Cytotoxicity against human BGC823 cells assessed as cell viability at 10 uM after 96 hrs by MTT assay; format: functional, cell-based
[3] = test system: Human immunodeficiency virus 1; assay: Antiviral activity against HIV1 infected in human 293T cells assessed as inhibition of viral replication incubated for 15 mins prior to infection measured after 48 hrs by luciferase reporter gene assay; format: functional, organism-based; details: Human immunodeficiency virus 1, HEK-293T

Structure (SMILES): C[C@H]1C[C@]2(O)C(=O)[C@@]3(C)[C@H](O)[C@@H]4[C@H](CC[C@@]3(C)[C@H](O)[C@H]2[C@H]1OC(=O)/C=C/c1ccccc1)C4(C)C
- Activity (KETR3): inactive
- inhibition [1]: inactive
- Activity (HCT-8): inactive
- Activity (A549): inactive
- Activity (Bel-7402): inactive
- Activity [2]: inactive
- Activity (MCF7): inactive
- Activity (BGC-823): inactive

Structure (SMILES): CO[C@@H]1[C@@H]2[C@H](CC[C@@]3(C)[C@H](O)[C@H]4[C@@H](OC(=O)/C=C/c5ccccc5)[C@@H](C)C[C@]4(O)C(=O)[C@@]13C)C2(C)C
- Activity (KETR3): inactive
- inhibition [1]: inactive
- Activity (HCT-8): inactive
- Activity (A549): inactive
- Activity (Bel-7402): inactive
- Activity [2]: inactive
- Activity (MCF7): inactive
- Activity (BGC-823): inactive

Structure (SMILES): C[C@H]1C[C@]2(O)C(=O)[C@@]3(C)[C@@H]4O[C@H]4C(C)(C)[C@@H](O)CC[C@@]3(C)[C@H](O)[C@H]2[C@H]1OC(=O)/C=C/c1ccccc1
- Activity (KETR3): inactive
- inhibition [1]: inactive
- Activity (HCT-8): inactive
- Activity (A549): inactive
- Activity (Bel-7402): inactive
- Activity [2]: inactive
- Activity (MCF7): inactive
- Activity (BGC-823): inactive

Structure (SMILES): C[C@H]1C[C@]2(O)C(=O)[C@@]3(C)[C@@H]4O[C@H]4C(C)(C)[C@@H](O)CC[C@@]3(C)[C@H](O)[C@H]2[C@H]1OC(=O)c1ccccc1
- Activity (KETR3): inactive
- inhibition [1]: inactive
- Activity (HCT-8): inactive
- Activity (A549): inactive
- Activity (Bel-7402): inactive
- Activity [2]: inactive
- Activity (MCF7): inactive
- Activity (BGC-823): inactive

Structure (SMILES): C[C@H]1C[C@]2(O)C(=O)[C@@]3(C)[C@H](O)[C@@H]4[C@H](CC[C@@]3(C)[C@H](O)[C@H]2[C@H]1OC(=O)c1ccccc1)C4(C)C
- Activity (KETR3): inactive
- inhibition [1]: inactive
- Activity (HCT-8): inactive
- Activity (A549): inactive
- Activity (Bel-7402): inactive
- Activity [2]: inactive
- Activity (MCF7): inactive
- Activity (BGC-823): inactive

Structure (SMILES): C[C@H]1C[C@]2(O)C(=O)[C@@]3(C)[C@@H]4[C@@H](O)C(C)(C)[C@H]4CC[C@@]3(C)[C@H](O)[C@H]2[C@H]1OC(=O)c1ccccc1
- Activity (KETR3): inactive
- inhibition [1]: inactive
- Activity (HCT-8): inactive
- Activity (A549): inactive
- Activity (Bel-7402): inactive
- Activity [2]: inactive
- Activity (MCF7): inactive
- Activity (BGC-823): inactive

Structure (SMILES): C[C@H]1C[C@]2(O)C(=O)[C@@]3(C)[C@@H]4[C@@H](O)C(C)(C)[C@H]4CC[C@@]3(C)[C@H](O)[C@H]2[C@H]1OC(=O)/C=C/c1ccccc1
- Activity (KETR3): inactive
- inhibition [1]: inactive
- Activity (HCT-8): inactive
- Activity (A549): inactive
- Activity (Bel-7402): inactive
- Activity [2]: inactive
- Activity (MCF7): inactive
- Activity (BGC-823): inactive

Structure (SMILES): CCO[C@@H]1[C@@H]2[C@H](CC[C@@]3(C)[C@H](O)[C@H]4[C@@H](OC(=O)c5ccccc5)[C@@H](C)C[C@]4(O)C(=O)[C@@]13C)C2(C)C
- Activity (KETR3): inactive
- inhibition [1]: inactive
- Activity (HCT-8): inactive
- Activity (A549): inactive
- Activity (Bel-7402): inactive
- Activity [2]: inactive
- Activity (MCF7): inactive
- Activity (BGC-823): inactive

Structure (SMILES): O=C1Nc2ccc(Cl)cc2[C@@](C#CC2CC2)(C(F)(F)F)O1 [EFAVIRENZ]
- pIC50 [3]: 7.22

Structure (SMILES): CO[C@@H]1[C@@H]2[C@H](CC[C@@]3(C)[C@H](O)[C@H]4[C@@H](O)[C@@H](C)C[C@]4(OC(=O)/C=C/c4ccccc4)C(=O)[C@@]23C)C1(C)C
- Activity (KETR3): inactive
- inhibition [1]: inactive
- Activity (HCT-8): inactive
- Activity (A549): inactive
- Activity (Bel-7402): inactive
- Activity [2]: inactive
- Activity (MCF7): inactive
- Activity (BGC-823): inactive

Structure (SMILES): CCO[C@@H]1[C@@H]2[C@H](CC[C@@]3(C)[C@H](O)[C@H]4[C@@H](OC(=O)/C=C/c5ccccc5)[C@@H](C)C[C@]4(O)C(=O)[C@@]13C)C2(C)C
- Activity (KETR3): inactive
- inhibition [1]: inactive
- Activity (HCT-8): inactive
- Activity (A549): inactive
- Activity (Bel-7402): inactive
- Activity [2]: inactive
- Activity (MCF7): inactive
- Activity (BGC-823): inactive

Structure (SMILES): CO[C@@H]1[C@@H]2[C@H](CC[C@@]3(C)[C@H](O)[C@H]4[C@@H](O)[C@@H](C)C[C@]4(OC(=O)c4ccccc4)C(=O)[C@@]13C)C2(C)C
- Activity (KETR3): inactive
- inhibition [1]: inactive
- Activity (HCT-8): inactive
- Activity (A549): inactive
- Activity (Bel-7402): inactive
- Activity [2]: inactive
- Activity (MCF7): inactive
- Activity (BGC-823): inactive
